ChEMBL document CHEMBL4393691, “Design, synthesis and antitumor evaluation of novel celastrol derivatives” (Eur J Med Chem, 2019)
Active and inactive are the calls of the source. No cut-off for these calls is given here.

Assays:
[1] = system: A549; assay: Induction of apoptosis in human A549 cells assessed as nuclear fragmentation at 0.06 to 0.18 uM incubated for 48 hrs by Hoechst 33342 staining-based fluorescence microscopy; format: functional, cell-based
[2] = system: A549; assay: Induction of apoptosis in human A549 cells assessed as necrotic cells at 1.2 uM incubated for 24 hrs by AnnexinV-FITC/propidium iodide staining-based flow cytometric analysis (reference value: 3.6%); format: functional
[3] = system: A549; assay: Induction of apoptosis in human A549 cells assessed as increase in Fas-L expression at 0.5 to 2 uM incubated for 8 hrs by western blot analysis; format: functional, cell-based
[4] = system: A549; assay: Induction of apoptosis in human A549 cells assessed as viable cells at 1.2 uM incubated for 24 hrs by AnnexinV-FITC/propidium iodide staining-based flow cytometric analysis (reference value: 88.1%); format: functional; details: A549, 24 h, read-out: Activity
[5] = system: A549; assay: Cell cycle arrest in human A549 cells assessed as accumulation at S phase at 0.06 uM incubated for 12 hrs by propidium iodide staining based flow cytometry analysis (Rvb=38.46%); format: functional
[6] = system: A549; assay: Induction of apoptosis in human A549 cells assessed as cell shrinkage at 0.06 to 0.18 uM incubated for 48 hrs by Hoechst 33342 staining-based fluorescence microscopy; format: functional
[7] = system: A549; assay: Induction of apoptosis in human A549 cells incubated for 48 hrs by Hoechst 33342 staining-based fluorescence microscopy; format: functional, cell-based
[8] = target: RAC-alpha serine/threonine-protein kinase (Homo sapiens) (UniProt P31749); assay: Inhibition of Akt phosphorylation in human A549 cells incubated for 8 hrs by Western blot analysis; format: cell-based
[9] = system: A549; assay: Cell cycle arrest in human A549 cells assessed as accumulation at S phase at 0.18 uM incubated for 24 hrs by propidium iodide staining based flow cytometry analysis (Rvb=27.61%); format: functional
[10] = system: A549; assay: Induction of apoptosis in human A549 cells assessed as viable cells at 0.6 uM incubated for 24 hrs by AnnexinV-FITC/propidium iodide staining-based flow cytometric analysis (reference value: 88.1%); format: functional; details: A549, 24 h, read-out: Activity
[11] = system: A549; assay: Induction of apoptosis in human A549 cells assessed as decrease in Bcl-2 expression incubated for 8 hrs by western blot analysis; format: functional, cell-based
[12] = system: A549; assay: Induction of apoptosis in human A549 cells assessed as viable cells at 0.4 uM incubated for 24 hrs by AnnexinV-FITC/propidium iodide staining-based flow cytometric analysis (reference value: 88.1%); format: functional; details: A549, 24 h, read-out: Activity
[13] = system: A549; assay: Cell cycle arrest in human A549 cells assessed as accumulation at G2 phase at 0.18 uM incubated for 24 hrs by propidium iodide staining based flow cytometry analysis (Rvb=18.01%); format: functional
[14] = system: A549; assay: Induction of apoptosis in human A549 cells assessed as late apoptotic cells at 0.6 uM incubated for 24 hrs by AnnexinV-FITC/propidium iodide staining-based flow cytometric analysis (reference value: 4.2%); format: functional
[15] = system: A549; assay: Cell cycle arrest in human A549 cells assessed as accumulation at G1 phase at 0.27 uM incubated for 12 hrs by propidium iodide staining based flow cytometry analysis (Rvb=49.49%); format: functional
[16] = system: A549; assay: Induction of apoptosis in human A549 cells assessed as increase in cleaved caspase8 expression at 0.5 to 2 uM incubated for 8 hrs by western blot analysis; format: functional, cell-based
[17] = system: A549; assay: Cell cycle arrest in human A549 cells assessed as accumulation at G1 phase at 0.18 uM incubated for 12 hrs by propidium iodide staining based flow cytometry analysis (Rvb=49.49%); format: functional
[18] = system: A549; assay: Cell cycle arrest in human A549 cells assessed as accumulation at S phase at 0.06 uM incubated for 24 hrs by propidium iodide staining based flow cytometry analysis (Rvb=27.61%); format: functional
[19] = system: A549; assay: Induction of apoptosis in human A549 cells assessed as necrotic cells at 0.6 uM incubated for 24 hrs by AnnexinV-FITC/propidium iodide staining-based flow cytometric analysis (reference value: 3.6%); format: functional
[20] = system: A549; assay: Induction of apoptosis in human A549 cells assessed as early apoptotic cells at 0.8 uM incubated for 24 hrs by AnnexinV-FITC/propidium iodide staining-based flow cytometric analysis (reference value: 4.1%); format: functional
[21] = system: A549; assay: Induction of apoptosis in human A549 cells assessed as necrotic cells at 0.4 uM incubated for 24 hrs by AnnexinV-FITC/propidium iodide staining-based flow cytometric analysis (reference value: 3.6%); format: functional
[22] = system: A549; assay: Induction of apoptosis in human A549 cells assessed as early apoptotic cells at 0.6 uM incubated for 24 hrs by AnnexinV-FITC/propidium iodide staining-based flow cytometric analysis (reference value: 4.1%); format: functional
[23] = system: A549; assay: Cell cycle arrest in human A549 cells assessed as accumulation at S phase at 0.18 uM incubated for 12 hrs by propidium iodide staining based flow cytometry analysis (Rvb=38.46%); format: functional
[24] = system: A549; assay: Induction of apoptosis in human A549 cells assessed as increase in cleaved PARP expression at 0.5 to 2 uM incubated for 8 hrs by western blot analysis; format: functional, cell-based
[25] = system: A549; assay: Induction of apoptosis in human A549 cells assessed as increase in Fas expression at 0.5 to 2 uM incubated for 8 hrs by western blot analysis; format: functional, cell-based
[26] = system: A549; assay: Induction of apoptosis in human A549 cells assessed as late apoptotic cells at 0.4 uM incubated for 24 hrs by AnnexinV-FITC/propidium iodide staining-based flow cytometric analysis (reference value: 4.2%); format: functional
[27] = system: A549; assay: Induction of apoptosis in human A549 cells assessed as early apoptotic cells at 1.2 uM incubated for 24 hrs by AnnexinV-FITC/propidium iodide staining-based flow cytometric analysis (reference value: 4.1%); format: functional
[28] = system: A549; assay: Cell cycle arrest in human A549 cells assessed as accumulation at G2 phase at 0.27 uM incubated for 12 hrs by propidium iodide staining based flow cytometry analysis (Rvb=11.7%); format: functional
[29] = system: A549; assay: Induction of apoptosis in human A549 cells assessed as viable cells at 0.2 uM incubated for 24 hrs by AnnexinV-FITC/propidium iodide/propidium iodide staining-based flow cytometric analysis (reference value: 88.1%); format: functional; details: A549, 24 h, read-out: Activity
[30] = system: A549; assay: Induction of apoptosis in human A549 cells assessed as viable cells at 0.8 uM incubated for 24 hrs by AnnexinV-FITC/propidium iodide staining-based flow cytometric analysis (reference value: 88.1%); format: functional; details: A549, 24 h, read-out: Activity
[31] = system: A549; assay: Cell cycle arrest in human A549 cells assessed as accumulation at G1 phase at 0.06 uM incubated for 24 hrs by propidium iodide staining based flow cytometry analysis (Rvb=55.3%); format: functional
[32] = system: A549; assay: Inhibition of Hsp90-Cdc37 interaction in human A549 cells assessed as decrease in Cdc37 protein level at 5 uM incubated for 6 hrs by immunoprecipitation assay; format: cell-based
[33] = system: MCF7; assay: Antiproliferative activity against human MCF7 cells assessed as reduction in cell viability at 1 uM incubated for 48 hrs by MTT assay relative to control; format: functional; details: MCF7, 48 h
[34] = system: A549; assay: Induction of apoptosis in human A549 cells assessed as early apoptotic cells at 0.2 uM incubated for 24 hrs by AnnexinV-FITC/propidium iodide/propidium iodide staining-based flow cytometric analysis (reference value: 4.1%); format: functional
[35] = system: A549; assay: Induction of apoptosis in human A549 cells assessed as late apoptotic cells at 0.2 uM incubated for 24 hrs by AnnexinV-FITC/propidium iodide/propidium iodide staining-based flow cytometric analysis (reference value: 4.2%); format: functional

Chain of RAC-alpha serine/threonine-protein kinase (Homo sapiens) (P31749 whole entry): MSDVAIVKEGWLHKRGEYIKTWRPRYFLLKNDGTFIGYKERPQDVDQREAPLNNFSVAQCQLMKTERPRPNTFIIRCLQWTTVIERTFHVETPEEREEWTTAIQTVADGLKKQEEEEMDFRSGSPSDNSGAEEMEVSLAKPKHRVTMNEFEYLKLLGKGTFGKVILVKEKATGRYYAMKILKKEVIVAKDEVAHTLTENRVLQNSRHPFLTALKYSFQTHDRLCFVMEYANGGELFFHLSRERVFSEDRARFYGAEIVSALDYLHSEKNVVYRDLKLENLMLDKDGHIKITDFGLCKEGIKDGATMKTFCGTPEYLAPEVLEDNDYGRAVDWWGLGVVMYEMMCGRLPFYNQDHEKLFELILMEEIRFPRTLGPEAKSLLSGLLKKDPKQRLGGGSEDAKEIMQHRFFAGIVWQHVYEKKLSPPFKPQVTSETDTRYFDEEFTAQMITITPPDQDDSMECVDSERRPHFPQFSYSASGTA

COC(=O)/C=C\c1ccc(OC)c(OCCOC(=O)[C@]2(C)CC[C@]3(C)CC[C@]4(C)C5=CC=C6C(=CC(=O)C(O)=C6C)[C@]5(C)CC[C@@]4(C)[C@@H]3C2)c1
Activity [1]: Active
Activity [2]: 11.9%
Activity [3]: Dose-dependent effect
viability at 1.2 µM [4]: 24.6%
Activity [5]: 36.32%
Activity [6]: Active
Activity [7]: Dose-dependent effect
inhibition [8]: Dose-dependent effect
Activity [9]: 29.7%
viability at 0.6 µM [10]: 50.6%
Activity [11]: Active
viability at 0.4 µM [12]: 69.9%
Activity [13]: 10.87%
Activity [14]: 27.6%
Activity [15]: 61%
Activity [16]: Dose-dependent effect
Activity [17]: 56.86%
Activity [18]: 32.45%
Activity [19]: 4.5%
Activity [20]: 16.1%
Activity [21]: 3.7%
Activity [22]: 17.3%
Activity [23]: 34.71%
Activity [24]: Dose-dependent effect
Activity [25]: Dose-dependent effect
Activity [26]: 16.4%
Activity [27]: 11.3%
Activity [28]: 5.52%
viability at 0.2 µM [29]: 77.7%
viability at 0.8 µM [30]: 33.7%
Activity [31]: 53.02%
inhibition [32]: Active
inhibition at 1 µM [33]: 87.7%
Activity [34]: 5.3%
Activity [35]: 12.7%
